≈ marks a conversion by molar mass, not a printed value. Calls of active or inactive are those of the source. The calls are words filed in the database; no cut-off is given here.
Experiments:
Scedosporium boydii = experiment: Antifungal activity against Allescheria boydii after 7 days by agar tube dilution method; format: functional; conditions: 168 h
Aspergillus niger = experiment: Antifungal activity against Aspergillus niger after 7 days by agar tube dilution method; format: functional; conditions: 168 h
Epidermophyton floccosum = experiment: Antifungal activity against Epidermophyton floccosum after 7 days by agar tube dilution method; format: functional; conditions: 168 h
Pleurotus ostreatus = experiment: Antifungal activity against Pleurotus ostreatus after 7 days by agar tube dilution method; format: functional; conditions: 168 h
Stachybotrys chartarum = experiment: Antifungal activity against Stachybotrys atra after 7 days by agar tube dilution method; format: functional, organism-based
Nigrospora oryzae = experiment: Antifungal activity against Nigrospora oryzae after 7 days by agar tube dilution method; format: functional, organism-based
[1] = Antifungal activity against Dutarium rotatum after 7 days by agar tube dilution method; format: functional

Structure (SMILES) | MIC (Scedosporium boydii) [µg/mL] | MIC (Aspergillus niger) [µg/mL] | MIC (Epidermophyton floccosum) [µg/mL] | MIC (Pleurotus ostreatus) [µg/mL] | Activity (Stachybotrys chartarum) | Activity (Nigrospora oryzae) | Activity [1]
CCN1C[C@]2(C)CC[C@H](OC)[C@@]34[C@@H]5C[C@@H]6CC[C@](OC(C)=O)([C@@H](C[C@H]23)[C@@H]14)[C@H]5C(=O)O6 | 100 (≈ 239 µM) | 200 (≈ 479 µM) | 250 (≈ 599 µM) | 150 (≈ 359 µM) |  |  | 
C=C1C[C@@]23C(=O)C(=O)[C@@H]4[C@@]5(C)C[C@H](OC(C)=O)C[C@@]46[C@@H]2C[C@@H]1C(=O)[C@@H]3[C@H]6N(C)C5 [VILMORRIANONE] | 150 (≈ 377 µM) | 100 (≈ 252 µM) | 225 (≈ 566 µM) | 175 (≈ 440 µM) |  |  | 
C=C1C[C@@]23CC(=O)[C@@H]4[C@@]5(C)C[C@H](OC(C)=O)C[C@@]46[C@@H]2C[C@@H]1C(=O)[C@@H]3[C@H]6N(C)C5 [PANICUTINE] | 75 (≈ 196 µM) | 125 (≈ 326 µM) | 200 (≈ 522 µM) | 125 (≈ 326 µM) | Active | Active | Active

Source: ChEMBL document CHEMBL1146391, “Antifungal diterpenoid alkaloids from Delphinium denudatum” (1997)
